Tests used:
[1] = rats, cited from earlier work
mice [2] = assay: Salicylate-induced tinnitus model, SBAD Go/No-Go (Example 12); format: in vivo; settings: before or after drug injections, at these dosages
Text: The SBAD method with Go/No-Go paradigm was used for behavioral test in mice. For “Go” trial animals were trained to move from one compartment to another upon presentation of a sound. For “No-Go” trial animals were trained to stay in the compartment. Otherwise they received a shock. “Go” paradigm was used to monitor motor, motivation, and memory functions while “No-Go” was used to detect tinnitus-like behavior. A baseline was established for each mouse over three consecutive days. The same SBAD method was repeated one hour after intraperitoneal injections of sodium salicylate (400 mg/kg), and two hours after TET injections.

CBA/CaJ mice [3] = assay: Accelerating rotarod test, motor coordination after single injection (Example 3); format: in vivo; settings: 1 and 3 h after injection
Method: FIG. 3 illustrates the effects of TET on mouse rotarod performance test. CBA/CaJ mice were tested before TET treatment (baseline) and one and three hours (1 h, 3 h) after TET treatment (i.p.). The latency to fall were shown as mean+/−S.E.M.
TET effects on motor coordination were evaluated on the accelerating rotarod test. the rotating speed was increased with an acceleration rate of 10 rpm/min. The length of time that each animal was able to stay on the rod was recorded as the latency to fall. TET was dissolved in 0.1 N HCl at a concentration of 50 mg/ml, and the pH was adjusted to 6.8-7.0 before diluted in saline. Mice were injected intraperitoneally (i.p.) with saline (baseline) or different TET dosages. Rotarod performance was evaluated at 1 and 3 h after injection (FIG. 3). […] No significant gender effect was detected at either time point (p>0.1).

CBA/CaJ mice [4] = assay: NIHL, white noise 110 dB SPL 30 min, ABR TTS, repeated TET (Example 6); format: in vivo; settings: 120 mg/kg two days before and three days after noise
Text: The average TTS across all test frequencies was 69.7 dB for the control group, 62.9 dB for the TET-treated group (about 6.8 dB of protection).

CBA/CaJ mice [5] = assay: Prepulse inhibition (PPI), sensory gating (Example 4); format: in vivo
Method: TET effects on sensory gating were evaluated using a prepulse inhibition (PPI) procedure. Mice were placed in a plastic restrainer situated on a plate with a pressure sensor. Any animal motion was detected by the sensor which measured its amplitude. TET at various dosages was injected (i. p.) 1 h before the test. For this study, CBA/CaJ mice were divided into four groups: control with saline injection only (n=6; 2 males), TET at 30 mg/kg (n=6; 3 males), 60 mg/kg (n=10; 5 males) and 120 mg/kg (n=6; 2 males). For all groups, the ratio between the PPI and startle amplitude was measured (FIG. 4). […] Thus, TET at 120 mg/kg has no toxic effects on sensory gating in the CBA/CaJ mouse.

mice [6] = assay: Noise-induced tinnitus model, SBAD Go/No-Go (Example 12); format: in vivo
Text: The SBAD method with Go/No-Go paradigm was used for behavioral test in mice. For “Go” trial animals were trained to move from one compartment to another upon presentation of a sound. For “No-Go” trial animals were trained to stay in the compartment. Otherwise they received a shock. “Go” paradigm was used to monitor motor, motivation, and memory functions while “No-Go” was used to detect tinnitus-like behavior. One ear was exposed to a 120 dB noise (4-25 kHz) for two hours for this noise-induced tinnitus model. DPOAE and ABR were measured to monitor possible hearing loss in each ear 2 weeks after noise exposure. SBAD measurements were made 2, 4, and 8 weeks after noise exposure, and also after TET (0, 30, 60, 90 mg/kg) injection.

CBA/CaJ mice [7] = assay: Accelerating rotarod, chronic TET use (Example 1); format: in vivo; settings: 120 mg/kg i.p. for five days, two-month old mice, two-way ANOVA p>0.05
Method: CBA/CaJ mice were purchased from The Jackson Laboratory. One to five mice were housed per cage with food and water available in a noise-controlled environment on a 12-hr light/dark cycle with light onset at 6:00 a.m. TET was obtained from Sigma Chemical Co. (St. Louis, Mo.). The drug solution was injected (i.p.) for the treated groups. Control mice were given saline injection only. The amount of water/food intake was monitored daily and body weight was monitored weekly. Drug neurotoxic effects on sensory motor coordination were assessed on two-month old CBA/CaJ mice using the accelerating rotarod method. Mice were trained on the task for 5 days in order to achieve stable performance before either being treated by intraperitoneal (i.p.) injections with TET at 120 mg/kg body weight (n=5) or saline (n=6).

CBA/CaJ mice [8] = assay: Early noise-induced accelerated ARHL model, ABR thresholds (Example 2); format: in vivo; settings: three months after noise exposure (4-25 kHz, 110 dB SPL, 30 min); TET three days before and two days after exposure
Method: Currently, no FDA-approved medications against ARHL are available. Two-month old CBA/CaJ mice were exposed to octave band (4-25 kHz) noise at 110 dB SPL for 30 minutes. This is a well-established noise model for our drug screenings since the noise exposure leads to dramatic acute and permanent hearing threshold shifts 24 hours and two weeks post-exposure respectively. In addition, apparently accelerated age-related increase in the auditory brainstem response (ABR) thresholds were observed three months after the noise exposure in the control group (n=6), up to approximately 50 dB at 40 kHz. Mice treated with TET (n=5) three days before and two days after the noise exposure had only about an increase of 10 dB at 40 kHz three months after exposure (FIG. 2). […] Thus, TET treatment at a young age could prevent accelerated age-related hearing loss due to early noise exposure.

[9] = higher dosages; abdominal distension, diarrhea, dry eye, itching, hyperpigmentation, mildly elevated liver enzymes; resolve after discontinuance; cited from earlier work
C57BL/6J mice = assay: Rodent avoidance (shuttle box) test, memory (Example 5); format: in vivo
Method: FIG. 5 illustrates the effects of TET on mouse avoidance test. C57BL/6J mice were trained to move in the shuttle box when a sound was present. After 10 days of training, the latency of their avoidance test was recored and compared between the control (0) and drug-treated groups. Data are shown as means+/−S.E.M.
TET effects on memory were evaluated in mice with a rodent avoidance system, which consisted of two compartments of equal size (12.5 cm×20 cm×20 cm) that were connected by a door. Infrared LEDs were used to monitor rodent movement in each compartment. Sound cues were delivered via piezo tweeters in the ceiling of the compartments. Animals were trained to move from one compartment to the other upon presentation of the sound. […] The trials and responses were collected. Behavioral responses of mice with or without TET injection were measured after injection (FIG. 5). […] Again, one time administration of TET at 120 mg/kg had no significant toxic effects on memory in mice.

[10] = single oral administration 50 mg/kg

## COc1ccc2cc1Oc1ccc(cc1)C[C@H]1c3cc(c(OC)cc3CCN1C)Oc1c(OC)c(OC)cc3c1[C@H](C2)N(C)CC3 [TET, tetrandrine]
[1]; between 12.5 to 25 mg/kg
  drug elimination from plasma: consistent with linear kinetics
[1]; [10]
  area under the curve (AUC): 6279.2 ± 2411.5 ng·h/mL
  half time (T½): 20.6 ± 3.7 h
[1]
  drug concentration-curve model: fits well with a two-compartment open model
Mice [2]
  "Go" testing (motor, motivation, memory functions): No significant changes
CBA/CaJ mice [3]; 60 mg/kg i.p.
  rotarod performance (latency to fall) vs baseline: no significant side effects
CBA/CaJ mice [3]; 120 mg/kg i.p.
  rotarod performance (latency to fall) vs baseline: no significant side effects
CBA/CaJ mice [4]
  protection (TTS difference to control): about 6.8 dB
CBA/CaJ mice [4]; 24 hours after exposure, four month-old mice (control 69.7 dB)
  average TTS across all test frequencies: 62.9 dB
CBA/CaJ mice [5]; 30 mg/kg i.p. 1 h before test
  ratio between PPI and startle amplitude, pre- vs post-treatment: No significant differences
CBA/CaJ mice [5]; 60 mg/kg i.p. 1 h before test
  ratio between PPI and startle amplitude, pre- vs post-treatment: No significant differences
CBA/CaJ mice [5]; 120 mg/kg i.p. 1 h before test
  ratio between PPI and startle amplitude, pre- vs post-treatment: No significant differences
Mice [6]
  "Go" trials (motor, motivation, memory functions): No significant changes
CBA/CaJ mice [7]
  rotarod latency to fall vs control: not significantly different
CBA/CaJ mice [8]
  increase of ABR threshold at 40 kHz: ~10 dB
[9]
  side effects in patients: limited side effects
C57BL/6J mice; 60 mg/kg
  avoidance test latency to cross vs control: No significant difference
C57BL/6J mice; 120 mg/kg
  avoidance test latency to cross vs control: No significant difference
C57BL/6J mice; 180 mg/kg, one-tailed t-test p<0.05
  avoidance test latency to cross vs control: significant increase

From US10434097B1, “Methods and compositions for treating hearing disorders” (GATEWAY BIOTECHNOLOGY, INC., priority 2015, dated 2019)
